How the values were obtained:
[1] = tested on: HT-29; assay: Antiproliferative activity against human HT-29 cells assessed as cell growth inhibition incubated for 72 hrs by MTT assay; type: functional
[2] = tested on: U-87 MG; assay: Antiproliferative activity against human U87 cells assessed as cell growth inhibition incubated for 72 hrs by MTT assay; type: functional, U-87MG ATCC
[3] = tested on: MCF7; assay: Antiproliferative activity against human MCF7 cells assessed as cell growth inhibition incubated for 72 hrs by MTT assay; type: functional
[4] = tested on: A2780; assay: Antiproliferative activity against human A2780 cells assessed as cell growth inhibition incubated for 72 hrs by MTT assay; type: functional
[5] = tested on: NCI-H460; assay: Antiproliferative activity against human NCI-H460 cells assessed as cell growth inhibition incubated for 72 hrs by MTT assay; type: functional
[6] = tested on: A-431; assay: Antiproliferative activity against human A-431 cells assessed as cell growth inhibition incubated for 72 hrs by MTT assay; type: functional
[7] = tested on: DU-145; assay: Antiproliferative activity against human DU-145 cells assessed as cell growth inhibition incubated for 72 hrs by MTT assay; type: functional
[8] = tested on: BE(2)-C; assay: Antiproliferative activity against human BE2C cells assessed as cell growth inhibition incubated for 72 hrs by MTT assay; type: functional
[9] = Antiproliferative activity against human SJG2 cells assessed as cell growth inhibition incubated for 72 hrs by MTT assay; type: functional; details: SJ-G2
[10] = tested on: MIA PaCa-2; assay: Antiproliferative activity against human MIA PaCa-2 cells assessed as cell growth inhibition incubated for 72 hrs by MTT assay; type: functional
[11] = Cytotoxicity against human MCF-10A cells assessed as cell growth inhibition incubated for 72 hrs by MTT assay; type: toxicity, cell-based
[12] = tested on: HT-29; assay: Antiproliferative activity against human HT-29 cells assessed as cell growth inhibition at 25 uM incubated for 72 hrs by MTT assay relative to control; type: functional
[13] = tested on: U-87 MG; assay: Antiproliferative activity against human U87 cells assessed as cell growth inhibition at 25 uM incubated for 72 hrs by MTT assay relative to control; type: functional, U-87MG ATCC
[14] = tested on: MCF7; assay: Antiproliferative activity against human MCF7 cells assessed as cell growth inhibition at 25 uM incubated for 72 hrs by MTT assay relative to control; type: functional
[15] = tested on: A2780; assay: Antiproliferative activity against human A2780 cells assessed as cell growth inhibition at 25 uM incubated for 72 hrs by MTT assay relative to control; type: functional
[16] = tested on: NCI-H460; assay: Antiproliferative activity against human NCI-H460 cells assessed as cell growth inhibition at 25 uM incubated for 72 hrs by MTT assay relative to control; type: functional
[17] = tested on: A-431; assay: Antiproliferative activity against human A-431 cells assessed as cell growth inhibition at 25 uM incubated for 72 hrs by MTT assay relative to control; type: functional
[18] = tested on: DU-145; assay: Antiproliferative activity against human DU-145 cells assessed as cell growth inhibition at 25 uM incubated for 72 hrs by MTT assay relative to control; type: functional
[19] = tested on: BE(2)-C; assay: Antiproliferative activity against human BE2C cells assessed as cell growth inhibition at 25 uM incubated for 72 hrs by MTT assay relative to control; type: functional
[20] = Antiproliferative activity against human SJG2 cells assessed as cell growth inhibition at 25 uM incubated for 72 hrs by MTT assay relative to control; type: functional; details: SJ-G2
[21] = tested on: MIA PaCa-2; assay: Antiproliferative activity against human MIA PaCa-2 cells assessed as cell growth inhibition at 25 uM incubated for 72 hrs by MTT assay relative to control; type: functional
[22] = Cytotoxicity against human MCF-10A cells assessed as cell growth inhibition at 25 uM incubated for 72 hrs by MTT assay relative to control; type: toxicity, cell-based

SMILES	GI50 [1]	GI50 [2]	GI50 [3]	GI50 [4]	GI50 [5]	GI50 [6]	GI50 [7]	GI50 [10]	GI50 [8]	GI50 [9]	GI50 at 72 h [11]	inhibition at 25 µM [12]	inhibition at 25 µM [13]	inhibition at 25 µM [14]	inhibition at 25 µM [15]	inhibition at 25 µM [16]	inhibition at 25 µM [17]	inhibition at 25 µM [18]	inhibition at 25 µM [19]	inhibition at 25 µM [20]	further results
O=c1[nH]c(/C=C/c2ccc(Br)cc2)nc2ccccc12	3200 nM	13 µM	3.1 µM	3600 nM	11 µM	11 µM	8.9 µM	14 µM	6400 nM	15000 nM	4.6 µM	94%	83%	> 100%	93%	70%	78%	77%	78%	76%	inhibition at 25 µM [21]: 68%; inhibition at 72 h, 25 µM [22]: 86%
O=C1NC(c2cccc(O)c2)Nc2ccccc21 (configuration not stated)	6300 nM	19 µM	13 µM	3000 nM	14 µM	3.7 µM	16 µM	15 µM	6400 nM	12000 nM	14 µM	> 100%	65%	66%	95%	94%	> 100%	72%	97%	> 100%	inhibition at 25 µM [21]: 86%; inhibition at 72 h, 25 µM [22]: 92%
O=C1NC(c2ccc3ccccc3c2)Nc2ccccc21 (configuration not stated)	2700 nM	5 µM	2.8 µM	2900 nM	2.9 µM	3 µM	4.2 µM	2.8 µM	2900 nM	2800 nM	3.5 µM	> 100%	94%	135%	> 100%	100%	> 100%	> 100%	98%	> 100%	inhibition at 25 µM [21]: > 100%; inhibition at 72 h, 25 µM [22]: 99%
O=C1NC(c2ccc(Br)cc2)Nc2ccccc21 (configuration not stated)	2900 nM	4.7 µM	3.6 µM	3100 nM	3.2 µM	3.1 µM	3.3 µM	3.2 µM	2600 nM	2500 nM	4 µM	> 100%	88%	89%	99%	97%	> 100%	> 100%	> 100%	> 100%	inhibition at 25 µM [21]: 90%; inhibition at 72 h, 25 µM [22]: 95%

Now those with a lower GI50 [1], led by results:

GI50 [1]	GI50 [2]	GI50 [3]	GI50 [4]	GI50 [5]	GI50 [6]	GI50 [7]	GI50 [10]	SMILES	GI50 [8]	GI50 [9]	GI50 at 72 h [11]	inhibition at 25 µM [12]	inhibition at 25 µM [13]	inhibition at 25 µM [14]	inhibition at 25 µM [15]	inhibition at 25 µM [16]	inhibition at 25 µM [17]	inhibition at 25 µM [18]	inhibition at 25 µM [19]	inhibition at 25 µM [20]	further results
2600 nM	4.1 µM	3.3 µM	2900 nM	3.1 µM	2.7 µM	4.8 µM	3.5 µM	O=C1NC(c2cc3ccccc3o2)Nc2ccccc21 (configuration not stated)	3100 nM	3000 nM	3.9 µM	≥ 92%	47%	63%	≥ 57%	77%	≥ 75%	≥ 28%	66%	≥ 71%	inhibition at 25 µM [21]: 76%; inhibition at 72 h, 25 µM [22]: 76%
1600 nM	2.6 µM	4 µM	2300 nM	3.2 µM	2.3 µM	3.1 µM	3.4 µM	Cc1ccc(C2NC(=O)c3ccccc3N2)cc1 (configuration not stated)	1900 nM	2900 nM	3.1 µM	> 100%	> 100%	90%	> 100%	> 100%	> 100%	> 100%	87%	> 100%	inhibition at 25 µM [21]: 95%; inhibition at 72 h, 25 µM [22]: 100%

— ChEMBL document CHEMBL5532698, “2,3-Dihydroquinazolin-4(1H)-ones and quinazolin-4(3H)-ones as broad-spectrum cytotoxic agents and their impact on tubulin polymerisation” (RSC Med Chem, 2024)
